Measured values as given in patent US10435402B2, “Bicyclic compounds, compositions and medicinal applications thereof” (Advinus Therapeutics Limited, priority 2015, dated 2019).

Target: T1, GAL4-DBD/RORγ-LBD (Homo sapiens, UniProt P51449)
T1 construct: expressed in transfected cells; host or cells: HEK293T
Experiment: RORγt transactivation reporter assay (GAL4-DBD/RORγ-LBD, luciferase read out)
Assay type: cell-based
Conditions: HEK293T cells, GAL4-UAS luciferase reporter, overnight (18-24 hours) incubation
Experimental: RORγt Transactivation Reporter Assay Protocol: The inhibition of RORγt activity in cells was evaluated using a GAL4-UAS reporter system in HEK293T cells employing a luciferase read out. RORγt ligand binding domain (LBD) was cloned into the pFN26A (BIND) vector (Promega #[…]) containing yeast GAL4-DBD to form a RORγt LBD-GAL4 DBD fusion construct. This vector also contained a Renilla Luciferase reporter expressed under a SV40 promoter which was used as a control for transfection efficiency. A transcriptional reporter expression construct pGL4.35 (Promega #[…]) was used to monitor RORγt LBD-GAL4 activity. This construct contained nine repeats of GAL4 binding site/upstream activating sequence (UAS) controlling expression of a firefly luciferase reporter Luc2P. When transfected together in cells, the RORγ-LBD-DBD fusion protein drives expression of the luciferase reporter. For the assay, HEK293T cells were plated in a flat bottom 96 well plate at a density of 25,000 cells/well/100 ul of DMEM high glucose medium (Sigma D5648) containing 10% FBS and antibiotic. Cells were incubated overnight at 37 C/5% CO2. The next day, medium from the wells was removed and replaced with 30 ul of OptiMEM® (Invitrogen #31985070). 100 ng each of pBIND RORγ LBD-DBD and pGL4.35 reporter plasmids was transfected in HEK293T cells using Lipofectamine 2000 (Invitrogen #11668-019) where 10 ul of transfection complex was added to the each well. Control transfections were performed with an empty pF[…] vector and pGL4.35 vector. The transfected cells were incubated for 5 hours at 37 C/5% CO2. After incubation, 40 ul of DMEM high glucose medium without FBS, with antibiotic was added to each well. A 10 mM stock solution of test compound prepared in 100% DMSO was first diluted in DMSO and then in DMEM medium without FBS to give the required final compound concentration. Concentration of DMSO in the test compound solution was 0.4%. 20 ul of diluted compound solution was added to each well. Cells were incubated overnight (18-24 hours) at 37 C/5% CO2. The next day, luciferase assay was performed using the Dual Glo® Luciferase Assay System (Promega #E2940). Briefly, medium was removed from the wells and replaced with 40 ul 1× Passive Lysis Buffer (Promega #E1941). Plate was incubated at room temperature on a plate shaker at 1000 rpm for 40 min. After incubation, plate was centrifuged at 1000 rpm for 2 min. 20 ul of the lysate was transferred from each well to that of solid white half area 96 well plate (Costar #3693). Dual Glo® Reagent was thawed to room temperature and 20 ul was added to each well containing lysate. Plate was centrifuged at 1000 rpm/2 min and incubated at room temperature on a plate shaker at 600 rpm/25 min. Firefly luciferase signal was measured on a Tecan Safire2. After measurement, 20 ul of Dual Glo® Stop Glo® Reagent was added to each well. Plate was centrifuged at 1000 rpm/2 min and incubated at room temperature on a plate shaker at 600 rpm/25 min. Renilla luciferase signal was measured on Tecan Safire 2. IC50 values for test compounds were calculated from the normalized luciferase signal data using GraphPad Prism software.

T1 sequence (P51449 269-508 limits assumed): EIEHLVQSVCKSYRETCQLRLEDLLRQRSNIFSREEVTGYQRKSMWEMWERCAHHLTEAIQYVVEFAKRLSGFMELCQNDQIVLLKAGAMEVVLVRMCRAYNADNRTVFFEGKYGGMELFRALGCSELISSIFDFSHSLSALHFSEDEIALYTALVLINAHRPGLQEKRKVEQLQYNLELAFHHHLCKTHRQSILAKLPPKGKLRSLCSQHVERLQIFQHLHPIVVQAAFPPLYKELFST
T1 sequence (P04386 1-147 partner limits assumed): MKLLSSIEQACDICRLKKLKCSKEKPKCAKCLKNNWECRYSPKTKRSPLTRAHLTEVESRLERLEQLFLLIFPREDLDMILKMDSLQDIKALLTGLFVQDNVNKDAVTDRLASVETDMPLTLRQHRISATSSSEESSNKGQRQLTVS

Row | Compound | IC50 [µM]
1 | Cc1c(-c2ccc(C(=O)O)cc2)c2ccccn2c1C(=O)c1c(Cl)ccnc1Cl [Example C-5, 4-[3-(2,4-dichloropyridine-3-carbonyl)-2-methyl-indolizin-1-yl]benzoic acid] | < 0.5
2 | 4-[3-(2,6-dichloro-3-fluoro-benzoyl)-5,6,7,8-tetrahydroindolizin-1-yl]benzoic acid [Example H-3] | > 5
3 | O=C(O)c1ccc(-c2cc(C(=O)c3c(Cl)cccc3C(F)(F)F)n3ccccc23)c(F)c1 [Example A-12, 4-[3-[2-chloro-6-(trifluoromethyl)benzoyl]indolizin-1-yl]-3-fluoro-benzoic acid] | < 0.5
4 | O=C(O)c1ccc(-c2c(F)c(C(=O)c3c(Cl)ccc(F)c3Cl)n3ccccc23)cc1 [Example B-6, 4-[3-(2,6-dichloro-3-fluoro-benzoyl)-2-fluoro-indolizin-1-yl]benzoic acid] | < 0.5
5 | CCOC(=O)c1ccc(-c2cc(C(=O)c3c(Cl)ccc(F)c3Cl)n3ccccc23)cc1 [Example A-56, ethyl 4-[3-(2,6-dichloro-3-fluoro-benzoyl)indolizin-1-yl]benzoate] | < 0.5
6 | COC(=O)c1ccc(-c2cc(C(=O)c3c(Cl)cccc3Cl)n3cccc(F)c23)c(F)c1 [Example A-22, methyl 4-[3-(2,6-dichlorobenzoyl)-8-fluoro-indolizin-1-yl]-3-fluoro-benzoate] | < 0.5
7 | CCOC(=O)c1ccc(-c2cc(C(=O)c3c(Cl)cccc3C3CC3)n3ccccc23)c(F)c1 [Example A-30, ethyl 4-[3-(2-chloro-6-cyclopropyl-benzoyl)indolizin-1-yl]-3-fluoro-benzoate] | < 0.5
8 | COC(=O)c1ccc(-c2cc(C(=O)c3c(Cl)cccc3Cl)n3ccccc23)c(F)c1 [Example A-4, methyl 4-[3-(2,6-dichlorobenzoyl)indolizin-1-yl]-3-fluoro-benzoate] | < 0.5
9 | O=C(O)c1cccc(-c2cc(C(=O)c3c(Cl)cccc3C(F)(F)F)n3ccccc23)c1 [Example A-57, 3-[3-[2-chloro-6-(trifluoromethyl)benzoyl]indolizin-1-yl]benzoic acid] | > 5
10 | O=C(O)c1ccc(-c2cc(C(=O)c3c(Cl)cccc3Br)n3ccccc23)c(F)c1 [Example A-52, 4-[3-(2-bromo-6-chloro-benzoyl)indolizin-1-yl]-3-fluoro-benzoic acid] | < 1
11 | O=C(O)c1cc(F)c(-c2cc(C(=O)c3c(Cl)cccc3Cl)n3ccccc23)c(F)c1 [Example A-9, 4-[3-(2,6-dichlorobenzoyl)indolizin-1-yl]-3,5-difluoro-benzoic acid] | < 0.5
12 | O=C(O)c1ccc(-c2cc(C(=O)c3c(F)cccc3Cl)n3cccc(F)c23)c(F)c1 [Example A-35, 4-[3-(2-chloro-6-fluoro-benzoyl)-8-fluoro-indolizin-1-yl]-3-fluoro-benzoic acid] | < 0.5
13 | COC(=O)c1ccc(-c2cc(C(=O)c3c(Cl)cccc3C(F)(F)F)n3ccccc23)c(F)c1 [Example A-11, methyl 4-[3-[2-chloro-6-(trifluoromethyl)benzoyl]indolizin-1-yl]-3-fluoro-benzoate] | < 0.5
14 | O=C(O)c1ccc(-c2cc(C(=O)c3c(F)cccc3Cl)n3ccccc23)c(F)c1 [Example A-27, 4-[3-(2-chloro-6-fluoro-benzoyl)indolizin-1-yl]-3-fluoro-benzoic acid] | < 0.5
15 | ethyl 4-[3-(2-bromo-6-methyl-benzoyl)indolizin-1-yl]benzoate [Example A-66] | < 0.5
16 | O=C(O)c1ccc(-c2cc(C(=O)c3c(Cl)cccc3Cl)n3ccccc23)c(F)c1 [Example A-3, 4-[3-(2,6-dichlorobenzoyl)indolizin-1-yl]-3-fluoro-benzoic acid] | < 0.5
17 | O=C(O)c1ccc(-c2cc(C(=O)c3c(Cl)ccc(F)c3Cl)n3ccccc23)c(F)c1 [Example A-18, 4-[3-(2,6-dichloro-3-fluoro-benzoyl)indolizin-1-yl]-3-fluoro-benzoic acid] | < 0.5
18 | O=C(O)c1ccc(-c2cc(C(=O)c3c(F)ccc(F)c3F)n3ccccc23)cc1 [Example A-42, 4-[3-(2,3,6-trifluorobenzoyl)indolizin-1-yl]benzoic acid] | < 0.5
19 | O=C(O)c1ccc(-c2cc(C(=O)c3c(Cl)cccc3Cl)n3ccccc23)cc1 [Example A-8, 4-[3-(2,6-dichlorobenzoyl)indolizin-1-yl]benzoic acid] | < 0.5
20 | CCOC(=O)c1ccc(-c2cc(C(=O)c3c(C)cccc3Cl)n3ccccc23)cc1 [Example A-14, ethyl 4-[3-(2-chloro-6-methyl-benzoyl)indolizin-1-yl]benzoate] | < 0.5
21 | CCOC(=O)c1ccc(-c2cc(C(=O)c3c(Cl)cccc3Cl)n3ccccc23)cc1 [Example A-6, ethyl 4-[3-(2,6-dichlorobenzoyl)indolizin-1-yl]benzoate] | < 0.5
22 | COC(=O)c1cc(F)c(-c2cc(C(=O)c3c(Cl)cccc3Cl)n3ccccc23)c(F)c1 [Example A-7, methyl 4-[3-(2,6-dichlorobenzoyl)indolizin-1-yl]-3,5-difluoro-benzoate] | < 0.5
23 | O=C(O)c1ccc(-c2cc(C(=O)c3c(F)cccc3F)n3ccccc23)c(F)c1 [Example A-39, 4-[3-(2,6-difluorobenzoyl)indolizin-1-yl]-3-fluoro-benzoic acid] | < 0.5

Next, values leading:

Row | IC50 [µM] | Compound
24 | < 0.5 | O=C(O)c1ccc(-c2cc(C(=O)c3c(Cl)cccc3Cl)n3cc(C(=O)N4CCCC4)ccc23)cc1 [Example D-5, 4-[3-(2,6-dichlorobenzoyl)-6-(pyrrolidine-1-carbonyl)indolizin-1-yl]benzoic acid]
25 | > 5 | COCCNC(=O)c1ccc2c(-c3ccc(C(=O)O)cc3)cc(C(=O)c3c(Cl)cccc3Cl)n2c1 [Example D-8, 4-[3-(2,6-dichlorobenzoyl)-6-(2-methoxyethylcarbamoyl)indolizin-1-yl]benzoic acid]
26 | > 5 | CNC(=O)c1ccc(-c2nc(C(=O)c3c(Cl)ccc(F)c3Cl)n3ccccc23)cc1 [Example F-1, 4-[3-(2,6-dichloro-3-fluoro-benzoyl)imidazo[1,5-a]pyridin-1-yl]-N-methyl-benzamide]
27 | < 0.5 | Cc1c(-c2ccc(C(=O)O)cc2F)c2ccccn2c1C(=O)c1c(Cl)cccc1C(F)(F)F [Example C-6, 4-[3-[2-chloro-6-(trifluoromethyl)benzoyl]-2-methyl-indolizin-1-yl]-3-fluoro-benzoic acid]
28 | < 1 | O=C(O)c1ccc(-c2cc(C(=O)c3c(Cl)cccc3Cl)n3cc(C(=O)N4CCOCC4)ccc23)cc1 [Example D-3, 4-[3-(2,6-dichlorobenzoyl)-6-(morpholine-4-carbonyl)indolizin-1-yl]benzoic acid]
29 | > 5 | CCS(=O)(=O)N1CC=C(c2cc(C(=O)c3c(Cl)cccc3Cl)n3ccccc23)CC1 [Example G-1, (2,6-dichlorophenyl)-[1-(1-ethylsulfonyl-3,6-dihydro-2H-pyridin-4-yl)indolizin-3-yl]methanone]
30 | < 0.5 | CCOC(=O)c1ccc(-c2c(C)c(C(=O)c3c(Cl)cccc3C(F)(F)F)n3ccccc23)cc1 [Example C-9, ethyl 4-[3-[2-chloro-6-(trifluoromethyl)benzoyl]-2-methyl-indolizin-1-yl]benzoate]
31 | > 5 | O=C(O)c1ccc(-c2cc(C(=O)c3c(Cl)cccc3Cl)n3cc(C(=O)NCCO)ccc23)cc1 [Example D-7, 4-[3-(2,6-dichlorobenzoyl)-6-(2-hydroxyethylcarbamoyl)indolizin-1-yl]benzoic acid]
32 | > 5 | CCS(=O)(=O)N1CCC=C(c2cc(C(=O)c3c(Cl)ccc(F)c3Cl)n3ccccc23)C1 [Example G-2, (2,6-dichloro-3-fluoro-phenyl)-[1-(1-ethylsulfonyl-3,6-dihydro-2H-pyridin-5-yl)indolizin-3-yl]methanone]
33 | < 0.5 | O=C(O)c1ccc(-c2cc(Cc3c(F)cccc3Cl)n3ccccc23)cc1 [Example J-1, 4-[3-[(2-chloro-6-fluoro-phenyl)methyl]indolizin-1-yl]benzoic acid]
